Literature values, collected in US20210299134A1, “TREATMENT OF B CELL MALIGNANCIES” (MEI Pharma, Inc., priority 2018, published 2021).

Experiments:
[1] = test system: TREGs; settings: after administration of a single dose; cited from earlier work
[2] = test system: B-cell malignancies; settings: a day per week dosing after once daily dosing for two 28-day cycles; preliminary data; cited from earlier work
[3] = cited from earlier work

Molecule	time to TREGs repopulation [1]	incidence of severe irAEs on IS [2]	tumor progression on IS [2]	plasma levels versus tissue levels ([3]; FIG. 6B)	plasma levels >IC90, share of time ([3]; once weekly dosing) [%]
denileukin diftitox	approximately 14 days				
CCOc1c([C@H](C)n2nc(C)c3c(N)ncnc32)cc(Cl)c(F)c1[C@@H]1CNC(=O)C1 [parsaclisib]		decrease in the incidence of severe irAEs	high rate of tumor progression	plasma approximates tissue levels	32
